Columns and labels:
[1] = target: T1, human serum albumin (HSA) (Homo sapiens, UniProt P02768); test: Fluorescence quenching titration of HSA (Stern–Volmer analysis); assay type: binding; settings: for K SV, Stern–Volmer quenching constant: 20 mM phosphate buffer pH 7.4, 25°C, excitation 295 nm; for K q, bimolecular quenching rate constant: Kq = KSV/τ0, τ0 = 10^−8 s, 25°C; for ∆G, standard free energy change of binding: ΔG = −2.303 RT logK; for redshift at the maximal emission wavelength of Tyr and Trp residues of HSA: increasing compound concentration
T1 construct: I (residues 1–195), II (196–383), and III (384–585); purchased Sigma
Experimental: (§1) The samples of HSA were prepared in 20 mM phosphate buffer (pH 7.4), whereas silver complexes (1 mM) stock solution were prepared in DMSO and further diluted in 20 mM phosphate buffer to reach the desired concentration. In all the samples, the final concentration of DMSO was not more than 1%. The concentration of HSA was determined using the Beer–Lambert law with the molar extinction coefficient of 36500 M^−1·cm^−1 at 280 nm. To study structural changes in HSA by the addition of [Ag(I)(Hnor)2](anion) compounds, the UV absorption spectra were measured, by variation of the concentration of the [Ag(I)(Hnor)2](anion) compounds, while keeping the concentration of HSA constant. UV absorption spectra, from 240 nm to 320 nm, were recorded on a Perkin–Elmer Lambda 45 spectrophotometer at 25°C. Quartz cuvettes of 1 cm path length were used for the measurements. Fluorescence measurements were performed on a Hitachi spectrofluorometer (Model F 7000) equipped with a PC. The fluorescence spectra were collected at 25°C with a path length cell of 1 cm. The slit width used was 5 nm with a protein concentration of 5 µM. The used excitation wavelength for the protein was 295 nm.
(§2) All the spectra were recorded after equilibration of the reaction mixture for 5 min.
The interaction between metal compounds and proteins has been widely investigated by using fluorescence spectroscopies. The luminescence response of HSA, upon addition of different concentrations of Ag(I) compounds, was studied in 20 mM phosphate buffer by using an emission titration experiment. Preliminary luminescence studies of the four starting Ag compounds 1–4 have been reported earlier by some of us. The excitation at 290 nm for all four compound results in a strong luminescence band at around 370 nm. The fluorescence studies of the ligand “Hnor” as well as the free silver salt, “AgNO3,” were also studied under the same conditions to compare the effect of separate entities with a combination of the two. Upon excitation at 295 nm, fluorescence intensity around 340 nm is known to reflect the changes of the tryptophan residue microenvironment. […] In Figure S3, similar data are presented for compounds 2–4, with only marginal differences upon anion variation.
The interaction of the Ag compounds with HSA was quantified; the Stern–Volmer equation has been employed:(1) F0/F=1+KSVQ=1+Kqτ0Q, where F 0 and F are the steady-state fluorescence intensities in the absence and presence of quencher at 340 nm, respectively. K sv is the Stern–Volmer quenching constant, K q stands for bimolecular quenching constant, τ 0 is the lifetime of the fluorophore in the absence of quencher, and [Q] is the concentration of quencher (i.e., the Ag compound). By calculating the quenching rate constants, K q, one can distinguish between the static quenching and the dynamic quenching, and this was evaluated by using the following equation:(2) Kq=KSV/τ0.
The value of tau(zero), τ 0, for biopolymers is known to be 10^−8 s. The Stern–Volmer quenching constant (K sv) for the fluorometric titration of the Ag(I) compounds into HSA solution was calculated from the linear relationship between F 0/F and [Ag(I)(Hnor)2]ClO4 (Figure 5) and enlisted in Table 1. In Figure S4, similar data are presented for compounds 2–4, confirming the above observations.
The equilibrium between free and bound molecules, when small molecules bind independently to a set of similar sites on a macromolecule, was ascertained by a modified Stern–Volmer equation [42]:(3) logF0−F/F=logK+n logQ, where K and n are the binding constant and the number of binding sites, respectively. A plot of log(F 0 − F/F) versus log[Q] was used to determine the value of K and n (inset in Figure 5). Several forces, like electrostatic, hydrogen bonds, weak van der Waals, hydrophobic, and steric contacts, can be thought of being responsible for the interaction between the albumin and Ag compounds. […]

[2] = target: T1, human serum albumin (HSA); test: UV absorption spectra of HSA with Ag(I) compounds; assay type: binding; settings: HSA 5 µM, with hyperchromism
Experimental: as §1, §2

[3] = target: T1, human serum albumin (HSA); test: Fluorescence quenching of HSA with addition of extra anions (KClO4, KNO3); assay type: binding; settings: for K SV / K, binding constant / n, number of binding sites: HSA 5 µM; for effect of anion salt alone on HSA structure: without Ag and Hnor, up to the concentration maximum used in the experiments
Experimental: as §1
Given the fact that the highest anticancer activity and also the most substantial HSA interaction takes place in case of the perchlorate and nitrate salts, it was decided to add extra perchlorate (and also nitrate) for all cases and to study the effect on the binding affinity. So, we carried out two sets of experiments and studied the binding propensity of Ag(I) compounds with HSA. In one experiment, the extra ClO4 ^− anion was added in a 1 : 4 ratio, compared to the Ag compound. In a second experiment, we used additional nitrate together with the Ag(I) compounds. Details are given in Figures 6 and 7, and the quite similar details for the other 3 compounds are presented in Figures S5 and S6 in Supplementary Materials.
To determine the role of only the anions (i.e., without Ag and Hnor), we also used KClO4 and KNO3 and studied their HSA binding by adding variable amounts of anions to the concentration maximum used in the experiments. […] When the extra anions + compounds were titrated, the results obtained did show an exponential increase in binding affinity of the Ag(I) compounds.
The binding strength was evaluated by calculating the Stern–Volmer constant (K sv), a number of the binding sites (n) and Gibbs free energy (ΔG); (Table 2). […] However, no correlation with the size of these four anions is seen.

[4] = target: T1, human serum albumin (HSA); test: Far-UV circular dichroism of HSA, α-helix content; assay type: binding; parameters: unit of the concentration uncertain; settings: HSA 20 µM, free HSA 67.03
Experimental: CD measurements were carried out on a Jasco spectropolarimeter (Model J-815) equipped with a microcomputer. The instrument was calibrated with D-10-camphorsulfonic acid. All the CD measurements were performed at 25°C with a thermostatically controlled cell holder, attached to a Neslab RTE-110 water bath with an accuracy of ±0.1°C. Spectra were collected with a scan speed of […] and a response time of 1 s. Each spectrum was taken as the average of three scans. The far-UV CD spectra were measured at a protein concentration of 20 µM at a path length of 1 cm.
as §2
The CD signal, expressed in millidegree, obtained over the wavelength range of 190–250 nm, was converted to a mean residue ellipticity (MRE, θ), using the following conversion:(5) MRE=θobs mdeg/10×n×Cp×l, where θ obs is the CD in millidegree, the number of amino acid residues (585) is given by n, “l” is the path length (cm), and C p is the molarity. The unit of MRE is deg·cm^2·dmol^−1.

[5] = test system: two different cancer cell lines; parameters: method as in PMID 25042730; settings: previous study; cited from earlier work
[6] = modified Stern–Volmer equation, HSA 5 µM, pH 7.4, 25°C
[7] = Set A: +extra ClO4− (KClO4, 1:4 ratio)
[8] = Set B: +extra NO3− (KNO3, 1:4 ratio)
[9] = compound concentration 20 (unit uncertain)
[10] = compound concentration 40 (unit uncertain)
[11] = compound concentration 60 (unit uncertain)
[12] = compound concentration 80 (unit uncertain)
[13] = compound concentration 100 (unit uncertain)

T1 sequence (P02768 25-609): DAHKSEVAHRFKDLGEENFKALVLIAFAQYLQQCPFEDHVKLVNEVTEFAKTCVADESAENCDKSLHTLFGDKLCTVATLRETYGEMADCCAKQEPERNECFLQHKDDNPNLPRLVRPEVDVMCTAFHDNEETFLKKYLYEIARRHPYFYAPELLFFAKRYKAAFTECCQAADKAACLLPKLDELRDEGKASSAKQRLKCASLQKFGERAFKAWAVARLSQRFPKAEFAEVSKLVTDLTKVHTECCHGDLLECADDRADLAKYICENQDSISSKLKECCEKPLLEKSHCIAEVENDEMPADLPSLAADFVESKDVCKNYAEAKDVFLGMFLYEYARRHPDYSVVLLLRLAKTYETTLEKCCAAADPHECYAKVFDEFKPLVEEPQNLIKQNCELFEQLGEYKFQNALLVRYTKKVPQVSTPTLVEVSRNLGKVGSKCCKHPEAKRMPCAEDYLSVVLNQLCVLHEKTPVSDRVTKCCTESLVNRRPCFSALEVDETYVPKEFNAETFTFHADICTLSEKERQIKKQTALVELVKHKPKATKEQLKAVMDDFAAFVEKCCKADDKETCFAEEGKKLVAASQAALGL

SMILES | K SV, Stern–Volmer quenching constant ([1]; HSA 5 µM) | K q, bimolecular quenching rate constant ([1]; HSA 5 µM) | K, binding constant [1, 6] | n, number of binding sites [1, 6] | ∆G, standard free energy change of binding [1] | redshift (bathochromic effect) of HSA UV absorbance [2] | redshift at the maximal emission wavelength of Tyr and Trp residues of HSA ([1]; HSA 5 µM) | K SV [3, 7] | K, binding constant [3, 7] | n, number of binding sites [3, 7] | ∆G [3, 8] | K SV [3, 8] | K, binding constant [3, 8] | n, number of binding sites [3, 8] | % α-helix of HSA [4, 9] | % α-helix of HSA [4, 10] | % α-helix of HSA [4, 11] | % α-helix of HSA [4, 12] | % α-helix of HSA [4, 13] | also measured
O=[N+]([O-])[O-].[Ag+] [AgNO3, reference compound] | 3.10 10^5 M^−1 | 31.0 10^12 M^−1·s^−1 | 1.94 10^6 M^−1 | 1.1 | -8.576 kcal/mol | – | – | – | – | – | – | – | – | – | – | – | – | – | – | –
[Ag+].[O-][Cl+3]([O-])([O-])[O-].c1ccc2c(c1)[nH]c1cnccc12.c1ccc2c(c1)[nH]c1cnccc12 [Compound 1, [Ag(Hnor)2](ClO4)] | 5.37 10^5 M^−1 | 53.7 10^12 M^−1·s^−1 | 3.74 10^6 M^−1 | 1.1 | -8.963 kcal/mol | 7 nm | 7 nm | 2.21 10^7 M^−1 | 17.2 10^10 M^−1 | 1.77 | -14.4 kcal/mol | 2.06 10^7 M^−1 | 3.64 10^10 M^−1 | 1.64 | 64.07% | 62.23% | 58.59% | 50.18% | 35.63% | ∆G [3, 7]: -15.33 kcal/mol; anticancer activity [5]: comparable to cisplatin
O=[N+]([O-])[O-].[Ag+].c1ccc2c(c1)[nH]c1cnccc12.c1ccc2c(c1)[nH]c1cnccc12 [Compound 2, [Ag(Hnor)2](NO3)] | 5.34 10^5 M^−1 | 53.4 10^12 M^−1·s^−1 | 3.64 10^6 M^−1 | 1.0 | -8.948 kcal/mol | 5 nm | 5 nm | 1.29 10^7 M^−1 | 6.05 10^10 M^−1 | 1.58 | -13.4 kcal/mol | 1.24 10^7 M^−1 | 0.66 10^10 M^−1 | 1.53 | 62.85% | 61.61% | 58.41% | 52.02% | 42.73% | –
CC#N.F[P-](F)(F)(F)(F)F.[Ag+].c1ccc2c(c1)[nH]c1cnccc12.c1ccc2c(c1)[nH]c1cnccc12 [Compound 3, [Ag(Hnor)2(MeCN)](PF6)] | 4.53 10^5 M^−1 | 45.3 10^12 M^−1·s^−1 | 0.55 10^6 M^−1 | 1.2 | -7.823 kcal/mol | 5 nm | 4 nm | 0.84 10^7 M^−1 | 0.46 10^10 M^−1 | 1.55 | -12.19 kcal/mol | 0.80 10^7 M^−1 | 0.08 10^10 M^−1 | 1.41 | 63.57% | 62.57% | 60.37% | 56.31% | 47.18% | ∆G [3, 7]: -13.18 kcal/mol
F[B-](F)(F)F.[Ag+].c1ccc2c(c1)[nH]c1cnccc12.c1ccc2c(c1)[nH]c1cnccc12 [Compound 4, [Ag(Hnor)2](BF4)] | 3.97 10^5 M^−1 | 39.7 10^12 M^−1·s^−1 | 1.14 10^6 M^−1 | 1.1 | -8.258 kcal/mol | 6 nm | 4 nm | 1.85 10^7 M^−1 | 1.19 10^10 M^−1 | 1.69 | -13.07 kcal/mol | 1.38 10^7 M^−1 | 0.38 10^10 M^−1 | 1.48 | 65.25% | 63.82% | 61.53% | 56.66% | 47.52% | –
c1ccc2c(c1)[nH]c1cnccc12 [Hnor, 9H-pyrido[3,4-b]indole, reference compound] | 2.95 10^5 M^−1 | 29.5 10^12 M^−1·s^−1 | – | 1.0 | -7.505 kcal/mol | – | – | – | – | – | – | – | – | – | – | – | – | – | – | Kd ([1]; modified Stern–Volmer equation, HSA 5 µM, pH 7.4, 25°C, read-out: K, binding constant (converted)): 3.03 µM
[K+].[O-][Cl+3]([O-])([O-])[O-] [KClO4, reference compound] | – | – | – | – | – | – | – | – | – | – | – | – | – | – | – | – | – | – | – | effect of anion salt alone on HSA structure [3]: negligible perturbance of the HSA structure
O=[N+]([O-])[O-].[K+] [KNO3, reference compound] | – | – | – | – | – | – | – | – | – | – | – | – | – | – | – | – | – | – | – | effect of anion salt alone on HSA structure [3]: negligible perturbance of the HSA structure
